Reference: patent US7550456B2, “Substituted aryl cycloalkanoyl derivatives and methods of their use” (Wyeth, priority 2003, dated 2009)
Structures can show the parent of a compound that is named as a salt.

Each molecule was assayed against T1, human hNET (Homo sapiens, UniProt P23975) (assay: Norepinephrine (NE) uptake assay in MDCK-Net6 cells). Conditions: 1 μM test compound, [3H]NE uptake, dihydrochloride, 1 µM.
T1 construct: expressed in transfected cells; host or cells: MDCK-Net6 (MDCK cells, stably transfected)
T1 sequence (P23975 whole entry): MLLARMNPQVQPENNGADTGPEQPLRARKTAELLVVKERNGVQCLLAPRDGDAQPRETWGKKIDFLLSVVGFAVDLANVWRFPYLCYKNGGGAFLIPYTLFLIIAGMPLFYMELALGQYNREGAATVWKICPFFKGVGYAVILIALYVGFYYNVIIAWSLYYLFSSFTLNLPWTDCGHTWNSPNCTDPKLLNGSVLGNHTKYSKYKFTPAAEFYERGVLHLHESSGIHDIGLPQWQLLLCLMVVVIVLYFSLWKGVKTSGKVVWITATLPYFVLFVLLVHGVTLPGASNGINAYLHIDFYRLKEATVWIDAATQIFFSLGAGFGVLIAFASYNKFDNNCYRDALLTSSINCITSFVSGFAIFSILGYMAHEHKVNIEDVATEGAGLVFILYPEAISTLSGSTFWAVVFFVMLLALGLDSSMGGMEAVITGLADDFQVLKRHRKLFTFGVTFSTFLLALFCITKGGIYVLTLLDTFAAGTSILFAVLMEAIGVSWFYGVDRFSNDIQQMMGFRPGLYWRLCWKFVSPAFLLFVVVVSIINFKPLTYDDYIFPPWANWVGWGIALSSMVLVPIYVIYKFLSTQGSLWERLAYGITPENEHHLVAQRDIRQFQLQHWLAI
Type: cell-based
Procedure, shortened: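 Radiolabelled NE uptake was counted by scintillation after NaOH lysis, with 1 µM desipramine defining non-specific uptake. EC50 came from a logistic dose-response fit.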

SMILES	% Inhibition @ 1 μM (hNET)
OC1(C(CN2CCNCC2)c2cccc(OC(F)(F)F)c2)CCCCC1 (stereo in doubt) [Example 244, 1-{(1R)-2-piperazin-1-yl-1-[3-(trifluoromethoxy)phenyl]ethyl}cyclohexanol dihydrochloride]	15.6%
OC1([C@H](CN2CCNCC2)c2cccc(OC(F)(F)F)c2)CCCCC1 [Example 243, 1-{(1S)-2-piperazin-1-yl-1-[3-(trifluoromethoxy)phenyl]ethyl}cyclohexanol dihydrochloride]	91%

Same assay, conditions: 1 μM test compound, [3H]NE uptake, read-out: % Inhibition @ 1 μM (hNET)

SMILES	inhibition at 1 µM
COc1cc(C(CN2CCNCC2)C2(O)CCCCC2)ccc1OCc1ccc2ccccc2c1 (stereo not drawn) [Example 444, 1-{1-[3-methoxy-4-(2-naphthylmethoxy)phenyl]-2-piperazin-1-ylethyl}cyclohexanol dihydrochloride]	98%
COc1ccc(CCOc2ccc(C(CN3CCN(C)CC3)C3(O)CCCCC3)cc2)cc1 (stereo not drawn) [Example 466, 1-[1-{{4-[2-(4-methoxyphenyl)ethoxy]phenyl}-2-(4-methylpiperazin-1-yl)ethyl]cyclohexanoldihydrochloride]	20%
OC1(C(CN2CCN(CC3CCCCC3)CC2)c2ccc(Oc3ccccc3)cc2)CCCCC1 (stereo not drawn) [Example 309, 1-[2-[4-(cyclohexylmethyl)piperazin-1-yl]-1-(4-phenoxyphenyl)ethyl]cyclohexanol dihydrochloride]	19.7%
COc1cccc(-c2ccc(C(CN3CCNCC3)C3(O)CCCCC3)cc2)c1 (stereo not drawn) [Example 170, 1-[1-(3′-methoxy-1,1′-biphenyl-4-yl)-2-piperazin-1-ylethyl]cyclohexanol dihydrochloride]	19%
OC1(C(CN2CCNCC2)c2ccc(OCc3ccc(Br)cc3F)cc2)CCCCC1 (stereo not drawn) [Example 434, 1-(1-{4-[(4-bromo-2-fluorobenzyl)oxy]phenyl}-2-piperazin-1-ylethyl)cyclohexanol]	34%
OC1([C@@H](CN2CCNCC2)c2cccc(Oc3ccccc3)c2)CCCCC1 (single isomer, unassigned) [Example 358, dihydrochloride]	73%
OC1(C(CN2CCNCC2)c2ccc(OCc3ccccc3C(F)(F)F)cc2)CCCCC1 (stereo not drawn) [Example 440, 1-[2-piperazin-1-yl-1-(4-{[2-(trifluoromethyl)benzyl]oxy}phenyl)ethyl]cyclohexanol dihydrochloride]	28%
OC1(C(CN2CCNCC2)c2cccc(Oc3ccccc3)c2)CCCCC1 (stereo not drawn) [Example 311, 1-[1-(3-phenoxyphenyl)-2-piperazin-1-ylethy]cyclohexanol dihydrochloride]	86.2%
C#Cc1cccc(C(CN2CCNCC2)C2(O)CCCCC2)c1 (stereo not drawn) [Example 298, 1-[1-(3-ethynylphenyl)-2-piperazin-1-ylethyl]cyclohexanol dihydrochloride]	91%
CN1CCN(CC(c2cccc(Oc3ccccc3)c2)C2(O)CCCCC2)CC1 (stereo not drawn) [Example 312, 1-[2-(4-methylpiperazin-1-yl)-1-(3-phenoxyphenyl)ethy]cyclohexanol dihydrochloride]	57.3%
OC1(C(CN2CCNCC2)c2ccc(OCc3ccc4ccccc4c3)cc2)CCCCC1 (stereo not drawn) [Example 432, 1-{1-[4-(2-naphthylmethoxy)phenyl]-2-piperazin-1-ylethyl}cyclohexanol]	64%
OC1(C(CN2CCNCC2)c2ccc(OCc3ccccc3C(F)(F)F)c(Cl)c2)CCCCC1 (stereo not drawn) [Example 421, 1-[1-(3-chloro-4-{[2-(trifluoromethyl)benzyl]oxy}phenyl)-2-piperazin-1-ylethyl]cyclohexanol dihydrochloride]	59%
CN1CCN(CC(c2ccc(OCCc3ccccc3)cc2)C2(O)CCCCC2)CC1 (stereo not drawn) [Example 460, 1-{2-(4-methylpiperazin-1-yl)-1-[4-(2-phenylethoxy)phenyl]ethyl}cyclohexanol dihydrochloride]	82%
CN1CCN(CC(c2ccc(-c3cccc(Cl)c3)cc2)C2(O)CCCCC2)CC1 (stereo not drawn) [Example 176, 1-[1-(3′-chloro-1,1′-biphenyl-4-yl)-2-(4-methylpiperazin-1-yl)ethyl]cyclohexanol dihydrochloride]	28%
OC1(C(CN2CCNCC2)c2cccc(-c3cccc(Cl)c3)c2)CCCCC1 (stereo not drawn) [Example 139, 1-[1-(3′-chloro-1,1′-biphenyl-3-yl)-2-piperazin-1-ylethyl]cyclohexanol dihydrochloride]	45%
CN1CCN(CC(c2cccc(-c3ccc(Cl)c(Cl)c3)c2)C2(O)CCCCC2)CC1 (stereo not drawn) [Example 247, 1-[1-(3′,4′-dichloro-1,1′-biphenyl-3-yl)-2-(4-methylpiperazin-1-yl)ethyl]cyclohexanol dihydrochloride]	49%
COc1cc(C(CN2CCN(C)CC2)C2(O)CCCCC2)ccc1OCc1ccc2ccccc2c1 (stereo not drawn) [Example 445, 1-[1-[3-methoxy-4-(2-naphthylmethoxy)phenyl]-2-(4-methylpiperazin-1-yl)ethyl]cyclohexanol dihydrochloride]	22%
OC1(C(CN2CCNCC2)c2ccc(OCCc3ccccc3)cc2)CCCCC1 (stereo not drawn) [Example 459, 1-{1-[4-(2-phenylethoxy)phenyl]-2-piperazin-1-ylethyl}cyclohexanol dihydrochloride]	58%
OC1(C(CN2CCNCC2)c2ccc(OCc3cccc(C(F)(F)F)c3)c(Cl)c2)CCCCC1 (stereo not drawn) [Example 423, 1-[1-(3-chloro-4-{[3-(trifluoromethyl)benzyl]oxy}phenyl)-2-piperazin-1-ylethyl]cyclohexanol dihydrochloride]	79%
COc1ccc(-c2cccc(C(CN3CCNCC3)C3(O)CCCCC3)c2)cc1OC (stereo not drawn) [Example 250, 1-[1-(3′,4′-dimethoxy-1,1′-biphenyl-3-yl)-2-piperazin-1-ylethyl]cyclohexanol dihydrochloride]	15%
CN1CCN(CC(c2ccc(CCc3ccccc3)cc2)C2(O)CCCCC2)CC1 (stereo not drawn) [Example 410, 1-{2-(4-methylpiperazin-1-yl)-1-[4-(2-phenylethyl)phenyl]ethyl}cyclohexanol dihydrochloride]	51%
CC(C)(O)CN1CCN(CC(c2cccc(OC(F)(F)F)c2)C2(O)CCCCC2)CC1 (single isomer, unassigned) [Example 372, 1-{2-[4-(2-hydroxy-2-methylpropyl)piperazin-1-yl]-1-[3-(trifluoromethoxy)phenyl]ethyl}cyclohexanol dihydrochloride]	37%
COc1cc(C(CN2CCN(C)CC2)C2(O)CCCCC2)ccc1OCc1ccccc1 (stereo not drawn) [Example 443, 1-[1-[4-(benzyloxy)-3-methoxyphenyl]-2-(4-methylpiperazin-1-yl)ethyl]cyclohexanol dihydrochloride]	90%

Same assay, conditions: 10 μM test compound (stated in the cell), [3H]NE uptake

SMILES	inhibition at 10 µM
COc1ccc(C(CN2CCN(C)CC2)C2(O)CCCCC2)cc1-c1cccc(OC(F)(F)F)c1 (stereo not drawn) [Example 256, 1-[1-[6-methoxy-3′-(trifluoromethoxy)-1,1′-biphenyl-3-yl]-2-(4-methylpiperazin-1-yl)ethyl]cyclohexanol dihydrochloride]	72.8%
CN1CCN(CC(c2ccc(-c3cccc(OC(F)(F)F)c3)cc2)C2(O)CCC2)CC1 (stereo not drawn) [Example 295, 1-{2-(4-methylpiperazin-1-yl)-1-[3′-(trifluoromethoxy)-1,1′-biphenyl-4-yl]ethyl}cyclobutanol dihydrochloride]	2%
